Experimental data published in patent US20090203646A1, “USE OF SODIUM NARCISTATIN FOR REDUCING INTERNAL ADHESIONS AND FIBROSIS” (Sun Health Research Institute, priority 2008, published 2009).
Entries after “also recorded” stand apart in the source; their conditions may differ.

Columns and labels:
[1] = system: intraperitoneal adhesion formation; conditions: after surgery; cited from earlier work
tumor growth = conditions: cited from earlier work
[2] = system: Encephalitozoan intestinalis; conditions: cited from earlier work
Japanese encephalitis = conditions: flavivvirus infection; cited from earlier work
Rat fibroblast cells = assay: Fibroblast proliferation, tritiated thymidine assay; assay type: cell-based
Procedure: Fibroblast Proliferation Assessment: A third experiment was completed to determined whether the adhesion reducing action of sodium narcistatin could be due to direct effects of sodium narcistatin to prevent fibroblast proliferation.
Proliferation of rat fibroblasts were assessed using standard tritiated thymidine assays as follows. Rat fibroblast cells were cultured in the presence of narcistatin in concentrations ranging from 0 to 1 mg/ml. The assay was completed in triplicate. Cells were pulsed at 24 h with 0.5 μCi 3H-Thymidine/well and incubated for 48 h at 37° C. At 48 h plates were pulled from the incubator and cells were harvested using a Brandel Cell Harvester. Filters with collected cells were washed 12× with 200 μl of ice cold distilled water). Fiberglass filers containing cells were placed into scintillation vials with 4 ml of ScintSafe Econo2 scintillation fluid. Radioactivity measured using a scintillation counter

[3] = system: Spleen cells treated with the T-cell dependent mitogen, Con A; assay: Cytokine production by spleen cells treated with Con A (ELISA); assay type: cell-based, Lewis rats
Procedure: (§1) Immune Cell Cytokine Profile Assessment: A second experiment was completed to determined whether the adhesion reducing action of sodium narcistatin could be due to altering immune cell pro-inflammatory cytokine profiles known to […] adhesion formation. Spleen cells were cultured from young adult Lewis rats and treated in vitro with either Con A or LPS, T or B cell mitogen, respectively. Cultures with and without Con A or LPS were then treated with sodium narcistatin (0, 1, or 10 μg/ml). Cultures were incubated for 24 h at 37° C. After 24 h, supernatants were collected and cytokines were assessed using cytokine specific ELISA assays.
Cell Culture: Spleens were aseptically removed into Hank's balanced salt solution (HBSS). The spleens were placed in a stomacher bag and homogenized for 30 seconds. Spleen cells were triturated with a 10 ml pipette then washed with an additional 10 ml of HBSS and passed through a nylon mesh (Marsh Industries) to remove the extraneous connective tissue. The collected cells were centrifuged and resuspended in 5 ml of a NH4Cl hypotonic buffer for 3 min to lyse the red blood cells. The cells were washed 2× with 10 ml HBSS, centrifuged and resuspended into complete RPMI 1640 media supplemented with 5% fetal calf serum and 1% antibiotic/antimycotic.
Cultures for Cytokine Analysis: The prepared cells were counted using a hemocytometer, then brought to the concentration of 2×10^6 cells/ml. Two ml of the cell preparation were plated into 24 well plates (Falcon: Oxnard, Calif.), in the absence or presence of mitogen and in placed in an incubator 7% CO2, 37° C., for 24 h. After 24 h the culture supernatants were harvested and placed in the freezer at −70° C. until ELISA assay.
Cytokine Production: Duo sets for the detection of IL-1, IL-2, IL-4, IL-10, IFN-γ and TNF-α were obtained from R & D Systems and sandwich ELISAs were used to measure the amount cytokine released into the culture media. High binding microtiter 96-well plates were pre-coated with 100 μl of capture antibody in coating buffer for IL-1, IL-2, IL-4, IL-10, IFN-γ and TNF-α (0.15 M phosphate buffer, pH 7.4). The plates were sealed with plate film (Denville Scientific: South Plainfield, N.J.) and placed at 4° C. overnight. […]
(§2) After color development the plates were stopped with addition of 1N sulfuric acid. Unknown sample cytokine levels were determined through comparison with a standard curve present on each plate using an ELISA reader (Ceres 900 HDI: Bio Tek Instruments Incorporated: Winooski, Vt.). The concentrations were averaged for each treatment group at each time point, expressed as mean±SEM in ng/ml, and subjected to a one-way ANOVA (p<0.05) with Bonferroni post-hoc testing.

arthritic rats = assay: Tolerability of the drug in arthritic rats; assay type: in vivo, Lewis rats
Source text: While there is variability in the severity of disease development between the batches of adjuvant, there is very little within batch variability. All animals in each experiment were challenged with the same preparation of adjuvant. All animals in this experiment that received CFA developed arthritis from this adjuvant preparation. The arthritis disease pathology that developed in both experiments was the same in onset and severity.

[4] = system: splenic adhesions in the peritoneal cavity of rats with inflammatory arthritis; assay: Adhesion formation in rats with CFA-induced inflammatory arthritis (gross observation and adhesion scoring)
[5] = system: Spleen cells treated with the B-cell dependent mitogen, LPS; assay: Cytokine production by spleen cells treated with LPS (ELISA); assay type: cell-based, Lewis rats; conditions: 1 or 10 μg/ml, 24 h
Procedure: as §1
Cell Culture: Spleens were aseptically removed into Hank's balanced salt solution (HBSS). […]
Cultures for Cytokine Analysis: The prepared cells were counted using a hemocytometer, then brought to the concentration of 2×10^6 cells/ml. […]
as §2

## O=C(c1ccccc1)c1ccc2n1CCC2C(=O)O (centres unmarked) [Ketorolac, reference compound]
[1]
  adhesion formation/reformation: reduces adhesion formation

## O=C1N[C@@H]2C(=C[C@H](O)[C@@H](O)[C@H]2O)c2cc3c(c(O)c21)OCO3 [Narciclasine, narciclasine]
Tumor growth
  anticancer properties: anticancer properties

## O=C1N[C@H]2[C@H](O)[C@H](O)[C@@H](O)[C@H](O)[C@@H]2c2cc3c(c(O)c21)OCO3 [Pancratastatin]
[2]
  activity against the parasite: activity
Japanese encephalitis
  survival rate: up to 100%
Tumor growth; relative to sodium narcistatin
  potency in inhibiting tumor growth: more potent than sodium narcistatin

## O=C1N[C@@H]2C(=C[C@H](O)[C@H]3OP(=O)(O)O[C@H]32)c2cc3c(c(O)c21)OCO3 [sodium narcistatin]
Rat fibroblast cells; 0 to 1 mg/ml
  inhibition of fibroblast proliferation in vitro (FIG. 6): potent inhibitor; also recorded: dose dependent
Rat fibroblast cells; at 0.001 mg/ml
  reduction of fibroblast proliferation: 50%
Rat fibroblast cells; at 0.01 mg/ml
  fibroblast proliferation reduced to: ~0%
[3]; 1 or 10 μg/ml, 24 h
  production of IFN-γ: reduced
  production of IL-1: reduced
  production of IL-2: reduced
[3]; summary sentence b104
  production of Con-A induced IFN-α: reduced
Arthritic rats; arthritic animals, 4.5 mg/Kg
  tolerability: tolerate the drug well
Arthritic rats; vehicle- versus narcistatin-treated arthritic rats
  body weights, grooming, feeding and drinking behavior: no differences
[4]; arthritic animals, compared to untreated or vehicle-treated arthritic animals
  number of adhesions in the thoracic and abdominal cavities: dramatically reduced
[4]; arthritic rats, 4.5 mg/Kg intraperitoneal, day 10 to day 28 post-immunization
  splenic adhesion development in peritoneal cavity (FIG. 2): little to no adhesions
[4]; arthritic rats, 4.5 mg/Kg intraperitoneal, blinded subjective scoring
  formation of dense fibrous connective tissue covering over the spleen and pancreas (adhesion scoring, FIG. 3): largely prevented
[5]
  production of IL-1 (IL-1β): reduced
  production of TNF-α: reduced

B1: IL-10: anti-inflammatory cytokine (protein, UniProt P22301 19-178, looked up)
Interleukin-10: SPGQGTQSENSCTHFPGNLPNMLRDLRDAFSRVKTFFQMKDQLDNLLLKESLLEDFKGYLGCQALSEMIQFYLEEVMPQAENQDPDIKAHVNSLGENLKTLRLRLRRCHRFLPCENKSKAVEQVKNAFNKLQEKGIYKAMSEFDIFINYIEAYMTMKIRN
[1]
  adhesion formation/reformation: reduces adhesions; also recorded: limited
